# Active and inactive are the calls of the source. The rule behind the calls is not given here.
# Tests used:
# [1] = test system: Coxsackievirus; assay: Antiviral activity against Coxsackievirus infected in african green monkey Vero cells assessed as ratio of viral titer in absence to presence of compound at 500 ug/ml by 50% endpoint titration technique; type: functional, organism-based
# [2] = test system: Human alphaherpesvirus 1; assay: Antiviral activity against Herpes simplex virus type 1 infected in african green monkey Vero cells assessed as ratio of viral titer in absence to presence of compound at 500 ug/ml by 50% endpoint titration technique; type: functional, organism-based
# [3] = test system: Measles morbillivirus; assay: Antiviral activity against Measles virus infected in african green monkey Vero cells assessed as ratio of viral titer in absence to presence of compound at 500 ug/ml by 50% endpoint titration technique; type: functional, organism-based
# [4] = test system: Semliki Forest virus; assay: Antiviral activity against Semliki forest virus infected in african green monkey Vero cells assessed as ratio of viral titer in absence to presence of compound at 500 ug/ml by 50% endpoint titration technique; type: functional, organism-based
# [5] = test system: Enterovirus C; assay: Antiviral activity against Poliovirus infected in african green monkey Vero cells assessed as ratio of viral titer in absence to presence of compound at 25 ug/ml by 50% endpoint titration technique; type: functional
# [6] = test system: Microsporum canis; assay: Antifungal activity against Microsporum canis at 500 ug/ml; type: functional, organism-based
# [7] = test system: Trichophyton mentagrophytes; assay: Antifungal activity against Trichophyton mentagrophytes at 500 ug/ml; type: functional, organism-based
# [8] = test system: Trichophyton rubrum; assay: Antifungal activity against Trichophyton rubrum at 500 ug/ml; type: functional, organism-based
# [9] = test system: Aspergillus niger; assay: Antifungal activity against Aspergillus niger at 500 ug/ml; type: functional, organism-based
# [10] = test system: Coxsackievirus; assay: Antiviral activity against Coxsackievirus infected in african green monkey Vero cells assessed as ratio of viral titer in absence to presence of compound at 5 ug/ml by 50% endpoint titration technique; type: functional
# [11] = test system: Enterovirus C; assay: Antiviral activity against Poliovirus infected in african green monkey Vero cells assessed as ratio of viral titer in absence to presence of compound at 5 ug/ml by 50% endpoint titration technique; type: functional
# [12] = test system: Semliki Forest virus; assay: Antiviral activity against Semliki forest virus infected in african green monkey Vero cells assessed as ratio of viral titer in absence to presence of compound at 50 ug/ml by 50% endpoint titration technique; type: functional
Structure (SMILES),Activity [1],Activity [2],Activity [3],Activity [4],Ratio [5],Activity [6],Activity [7],Activity [8],Activity [9],Ratio [10],Ratio [11],Ratio [12]
OCc1ccccc1O[C@@H]1O[C@H](CO)[C@@H](O)[C@H](O)[C@H]1O [SALICIN],inactive,inactive,inactive,inactive,1000,inactive,inactive,inactive,inactive,–,–,–
COc1c(-c2ccc(O)c(O)c2)oc2cc(O)cc(O)c2c1=O [3-O-METHYLQUERCETIN],–,inactive,inactive,inactive,–,–,–,–,–,10000000,100000000,–
O=C(OCc1cc(O)ccc1O[C@@H]1O[C@H](CO)[C@@H](O)[C@H](O)[C@H]1O)c1ccccc1 [SALIREPOSIDE],inactive,inactive,inactive,–,10000,inactive,inactive,inactive,inactive,–,–,10000

# Reference: ChEMBL document CHEMBL1147300, “Plant antiviral agents, VI. Isolation of antiviral phenolic glucosides from Populus cultivar Beaupre by droplet counter-current chromatography” (1989)
